Consider 23 compounds from patent US20130225548A1, “Pyridine Derivative and Medicinal Agent” (NIPPON SHINYAKU CO., LTD., priority 2010, published 2013).

Structures can show the parent of a compound that is named as a salt.

The target in the assay is T1, Syk tyrosine kinase (Homo sapiens, UniProt P43405).
T1 construct: purchased Carna Biosciences, Inc
The assay can be described thus: Test for Syk tyrosine kinase inhibitory activity (ELISA). The note with it: Syk tyrosine kinase (Carna Biosciences), 25 μM ATP in substrate solution, 30° C. 1 hour, n=2; read-out: Evaluation (IC50, concentration inhibiting the tyrosine kinase activity at 50%). The assay is classed as biochemical. Summed up: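 Syk kinase (0.025 nM stock before addition) with 625 nM biotinylated peptide and 25 μM ATP (substrate-solution levels) in Tris pH 7.5, MgCl2, DTT; 1 h at 30 °C on streptavidin plates. Phosphotyrosine detected by HRP anti-pTyr antibody, TMB, A450; IC50 by non-linear regression.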
A general note: ELISA stands for enzyme-linked immunosorbent assay.
For the compound `N#Cc1ccnc(Nc2cc(C3CC3)cc(-c3cncc(N4CCCN(C(N)=O)CC4)c3)n2)c1` [Example 69, 4-{6-[(4-cyanopyridin-2-yl)amino]-4-cyclopropyl-2,3′-bipyridin-5′-yl}-1,4-diazepane-1-carboxamide hydrochloride], the IC50 lay in the range of 5 to 50 nM.

Regarding `N#Cc1ccnc(Nc2cc(C3CC3)cc(-c3ccc(CN4CCNC(=O)C4)nc3)n2)c1` [Example 70, 2-({4-cyclopropyl-6′-[(3-oxopiperazin-1-yl)methyl]-2,3′-bipyridin-6-yl}amino)pyridine-4-carbonitrile hydrochloride], the IC50 lay within 50 to 500 nM.

With `N#Cc1ccnc(Nc2cc(C3CC3)cc(-c3ccc(CO)nc3)n2)c1` [Example 71, 2-{[4-cyclopropyl-6′-(hydroxymethyl)-2,3′-bipyridin-6-yl]amino}pyridine-4-carbonitrile hydrochloride], the IC50 fell in the range of 50 to 500 nM. In the case of `N#Cc1ccnc(Nc2cc(C3CC3)cc(-c3ccc(CN4CCS(=O)(=O)CC4)nc3)n2)c1` [Example 72, 2-({4-cyclopropyl-6′-[(1,1-dioxidethiomorpholin-4-yl)methyl]-2,3′-bipyridin-6-yl}amino)pyridine-4-carbonitrile hydrochloride], the IC50 was in the range of 5 to 50 nM. Turning to `N#Cc1ccnc(Nc2cc(C3CC3)cc(-c3cncc(CN4CCNC(=O)C4)c3)n2)c1` [Example 73, 2-({4-cyclopropyl-5′-[(3-oxopiperazin-1-yl)methyl]-2,3′-bipyridin-6-yl}amino)pyridine-4-carbonitrile hydrochloride], the IC50 was 5 to 50 nM.

In the case of `N#Cc1ccnc(Nc2cc(C3CC3)cc(-c3cncc(CN4CCS(=O)(=O)CC4)c3)n2)c1` [Example 74, 2-({4-cyclopropyl-5′-[(1,1-dioxidethiomorpholin-4-yl)methyl]-2,3′-bipyridin-6-yl}amino)pyridine-4-carbonitrile hydrochloride], the IC50 is 5 to 50 nM.

Take `N#Cc1ccnc(Nc2cc(C3CC3)cc(-c3cncc(CN4CCCN(C(N)=O)CC4)c3)n2)c1` [Example 75, 4-({6-[(4-cyanopyridin-2-yl)amino]-4-cyclopropyl-2,3′-bipyridin-5′yl}methyl)-1,4-diazepane-1-carboxamide hydrochloride]: the IC50 was in the range of 5 to 50 nM. Under `N#Cc1ccnc(Nc2cc(C3CC3)cc(-c3ccnc(N4CCCN(C(N)=O)CC4)c3)n2)c1` [Example 76, 4-{6-[(4-cyanopyridin-2-yl)amino]-4-cyclopropyl-2,4′-bipyridin-2′-yl}-1,4-diazepane-1-carboxamide hydrochloride] stands 5 to 50 nM; under `N#Cc1ccnc(Nc2cc(C3CC3)cc(-c3cncc(NC4CCN(C(N)=O)CC4)c3)n2)c1` [Example 77, 4-({6-[(4-cyanopyridin-2-yl)amino]-4-cyclopropyl-2,3′-bipyridin-5′-yl}amino)piperidine-1-carboxamide hydrochloride], 5 to 50 nM. With `N#Cc1ccnc(Nc2cc(C3CC3)cc(-c3cccc(N4CCCN(C(N)=O)CC4)c3)n2)c1` [Example 78, 4-(3-{6-[(4-cyanopyridin-2-yl)amino]-4-cyclopropylpyridin-2-yl}phenyl)-1,4-diazepane-1-carboxamide hydrochloride], the IC50 lay within 5 to 50 nM. With `N#Cc1ccnc(Nc2cc(C3CC3)cc(-c3cccc(CN4CCNC(=O)C4)c3)n2)c1` [Example 79, 2-[(4-cyclopropyl-6-{3-[(3-oxopiperazin-1-yl)methyl]phenyl}pyridin-2-yl)amino]pyridine-4-carbonitrile hydrochloride], the IC50 was in the range of 5 to 50 nM. To `N#Cc1ccnc(Nc2cc(C3CC3)cc(-c3ccc(CN4CCNC(=O)C4)cc3)n2)c1` [Example 80, 2-[(4-cyclopropyl-6-{4-[(3-oxopiperazin-1-yl)methyl]phenyl}pyridin-2-yl)amino]pyridine-4-carbonitrile hydrochloride] belongs 50 to 500 nM; to `N#Cc1ccnc(Nc2cc(C3CC3)cc(-c3cncc(CN4CCNCC4)c3)n2)c1` [Example 81, 2-{[4-cyclopropyl-5′-(piperazin-1-ylmethyl)-2,3′-bipyridin-6-yl]amino}pyridine-4-carbonitrile hydrochloride], 5 to 50 nM; to `CC(=O)N1CCN(Cc2cncc(-c3cc(C4CC4)cc(Nc4cc(C#N)ccn4)n3)c2)CC1` [Example 82, 2-({5′-[(4-acetylpiperazin-1-yl)methyl]-4-cyclopropyl-2,3′-bipyridin-6-yl}amino)pyridine-4-carbonitrile hydrochloride], 50 to 500 nM. Turning to `N#Cc1ccnc(Nc2cc(C3CC3)cc(-c3cncc(CN4CCN(C(N)=O)CC4)c3)n2)c1` [Example 83, 4-({6-[(4-cyanopyridin-2-yl)amino]-4-cyclopropyl-2,3′-bipyridin-5′-yl}methyl)piperazine-1-carboxamide hydrochloride], the IC50 was in the range of 5 to 50 nM. Take `N#Cc1ccnc(Nc2cc(C3CC3)cc(-c3cccc(CN4CCNCC4)c3)n2)c1` [Example 84, 2-({4-cyclopropyl-6-[3-(piperazin-1-ylmethyl)phenyl]pyridin-2-yl}amino)pyridine-4-carbonitrile hydrochloride]: the IC50 was less than 5 nM. To `N#Cc1ccnc(Nc2cc(C3CC3)cc(-c3cncc(NC4CCNCC4)c3)n2)c1` [Example 85, 2-{[4-cyclopropyl-5′-(piperidin-4-ylamino)-2,3′-bipyridin-6-yl]amino}pyridine-4-carbonitrile hydrochloride] belongs less than 5 nM; to `N#Cc1ccnc(Nc2cc(C3CC3)cc(-c3ccnc(CN4CCNCC4)c3)n2)c1` [Example 86, 2-{[4-cyclopropyl-2′-(piperazin-1-ylmethyl)-2,4′-bipyridin-6-yl]amino}pyridine-4-carbonitrile hydrochloride], 5 to 50 nM; to `N#Cc1ccnc(Nc2cc(C3CC3)cc(-c3ccnc(CN4CCNC(=O)C4)c3)n2)c1` [Example 87, 2-({4-cyclopropyl-2′-[(3-oxopiperazin-1-yl)methyl]-2,4′-bipyridin-6-yl}amino)pyridine-4-carbonitrile hydrochloride], 5 to 50 nM. To `N#Cc1ccnc(Nc2cc(C3CC3)cc(-c3cncc(N[C@@H]4CCNC4)c3)n2)c1` [Example 88, 2-({4-cyclopropyl-5′-[(3R)-pyrrolidin-3-ylamino]-2,3′-bipyridin-6-yl}amino)pyridine-4-carbonitrile hydrochloride] belongs less than 5 nM. To `N#Cc1ccnc(Nc2cc(C3CC3)cc(-c3cncc(N[C@H]4CCNC4)c3)n2)c1` [Example 89, 2-{(4-cyclopropyl-5′-[(3S)-pyrrolidin-3-ylamino]-2,3′-bipyridin-6-yl}amino)pyridine-4-carbonitrile hydrochloride] belongs less than 5 nM; to `N#Cc1ccnc(Nc2cc(C3CC3)cc(-c3cncc(NCCN)c3)n2)c1` [Example 90, 2-({5′-[(2-aminoethyl)amino]-4-cyclopropyl-2,3′-bipyridin-6-yl}amino)pyridine-4-carbonitrile hydrochloride], less than 5 nM; to `N#Cc1ccnc(Nc2cc(C3CC3)cc(-c3cncc(COC4CCNCC4)c3)n2)c1` [Example 91, 2-({4-cyclopropyl-5′-[(piperidin-4-yloxy)methyl]-2,3′-bipyridin-6-yl}amino)pyridine-4-carbonitrile hydrochloride], less than 5 nM.
